# Results: patent US10919916B2, “Boron-containing small molecules” (Bill & Melinda Gates Foundation, priority 2016, dated 2021)
# Experiments:
# Format in all cases: cell-based
# [1] = tested on: Wolbachia pipientis in C6/36 cell line; assay: Anti-Wolbachia high-content assay; details: C6/36 (wAlbB) cells, 7 days at 26° C., 50% reduction of Wolbachia, read-out: EC50 Wolbachia pipientis in C6/36 cell line
# Experimental: After 15 minutes, all media was removed from each well and fresh media (no stain) was added. Imaging of each well was accomplished using a Perkin Elmer Operetta high-content imaging system. Five fields per well were imaged using a confocal 60× objective with the Fluorescein filter (excitation filter: 460-490 nm; emission filter: 500-550 nm). Images were analyzed using the Perkin Elmer Harmony software to score each intact cell on the basis of texture complexity of the cytoplasm. Full details can be found in: […]. et al, J. Biomol.
# [2] = tested on: Staphylococcus aureus, MRSA (ATCC 33591); assay: Antibacterial MIC assay (microbroth dilution, CLSI); details: microbroth dilution, cation-adjusted Mueller-Hinton broth, 35° C. for 16-20 hours, read-out: MIC Staphylococcus aureus, MRSA (ATCC 33591)
# Method in brief: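 Microbroth dilution per CLSI M07-A10/M100-S25 in cation-adjusted Mueller-Hinton broth, with 3% lysed horse blood added for S. pneumoniae. Inoculum from a 0.5 McFarland direct colony suspension, diluted to 5×10^5 CFU/mL in the well. Compounds were 2-fold serially diluted; MIC read against a growth control.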
# [3] = tested on: Streptococcus pneumoniae (ATCC 49619); assay: as above; details: ATCC49619, microbroth dilution, 3% lysed horse blood, 35° C. for 16-20 hours, read-out: MIC Streptococcus pneumoniae (ATCC 49619)
# Method in brief: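 CLSI broth microdilution: 2-fold compound dilutions in cation-adjusted Mueller-Hinton broth supplemented with 3% lysed horse blood for S. pneumoniae, inoculum 5×10^5 CFU/mL from a 0.5 McFarland direct colony suspension, with growth control.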
Compound,EC50 [1] [nM],MIC [2] [µg/mL],MIC [3] [µg/mL]
"C=C[C@]1(C)C[C@@H](OC(=O)COc2ccc3c(c2F)B(O)OC3)[C@]2(C)[C@H](C)CC[C@]3(C[C@H](O)C(=O)[C@H]32)[C@@H](C)[C@@H]1O [Compound 36, (2S,3aR,4R,5R,7S,8S,9R,9aS,12R)-2,8-dihydroxy-4,7,9,12-tetramethyl-3-oxo-7-vinyldecahydro-4,9a-propanocyclopenta[8]annulen-5-yl 2-((7-fluoro-1-hydroxy-1,3-dihydrobenzo[c][1,2]oxaborol-6-yl)oxy)acetate]",193,< 0.25,0.5 to 2
"C=C[C@]1(C)C[C@@H](OC(=O)COc2ccc3c(c2F)B(O)OC3)[C@]2(C)[C@H](C)CC[C@]3(C[C@H](F)C(=O)[C@H]32)[C@@H](C)[C@@H]1O [Compound 39, (2S,3aR,4R,5R,7S,8S,9R,9aS,12R)-2-fluoro-8-hydroxy-4,7,9,12-tetramethyl-3-oxo-7-vinyldecahydro-4,9a-propanocyclopenta[8]annulen-5-yl 2-((7-fluoro-1-hydroxy-1,3-dihydrobenzo[c][1,2]oxaborol-6-yl)oxy)acetate]",84,< 0.25,0.5 to 2
"C=C[C@]1(C)C[C@@H](OC(=O)COc2cc(CNC(=O)OC(C)(C)C)c3c(c2)B(O)OC3)[C@]2(C)[C@H](C)CC[C@]3(C[C@H](O)C(=O)[C@H]32)[C@@H](C)[C@@H]1O [Compound 41, (2S,3aR,4R,5R,7S,8S,9R,9aS,12R)-2,8-dihydroxy-4,7,9,12-tetramethyl-3-oxo-7-vinyldecahydro-4,9a-propanocyclopenta[8]annulen-5-yl 2-((4-(((tert-butoxycarbonyl)amino)methyl)-1-hydroxy-1,3-dihydrobenzo[c][1,2]oxaborol-6-yl)oxy)acetate]",625,0.5 to 2,0.5 to 2
"C=C[C@]1(C)C[C@@H](OC(=O)CNc2ccc3c(c2)B(O)OC32CCNCC2)[C@]2(C)[C@H](C)CC[C@]3(CCC(=O)[C@H]32)[C@@H](C)[C@@H]1O [Compound 53, (3aR,4R,5R,7S,8S,9R,9aS,12R)-8-hydroxy-4,7,9,12-tetramethyl-3-oxo-7-vinyldecahydro-4,9a-propanocyclopenta[8]annulen-5-yl (1-hydroxy-1H-spiro[benzo[c][1,2]oxaborole-3,4′-piperidin]-6-yl)glycinate]",> 1000,4 to 32,0.5 to 2
"C=C[C@]1(C)C[C@@H](OC(=O)NC(=O)c2ccc3c(c2)B(O)OC3)[C@]2(C)[C@H](C)CC[C@]3(CCC(=O)[C@H]32)[C@@H](C)[C@@H]1O [Compound 58, (3aR,4R,5R,7S,8S,9R,9aS,12R)-8-hydroxy-4,7,9,12-tetramethyl-3-oxo-7-vinyldecahydro-4,9a-propanocyclopenta[8]annulen-5-yl (1-hydroxy-1,3-dihydrobenzo[c][1,2]oxaborole-6-carbonyl)carbamate]",56,< 0.25,0.5 to 2
"C=C[C@]1(C)C[C@@H](OC(=O)COc2ccc3c(c2F)B(O)N(S(C)(=O)=O)N=C3)[C@]2(C)[C@H](C)CC[C@]3(C[C@H](F)C(=O)[C@H]32)[C@@H](C)[C@@H]1O [Compound 76, (2S,3aR,4R,5R,7S,8S,9R,9aS,12R)-2-fluoro-8-hydroxy-4,7,9,12-tetramethyl-3-oxo-7-vinyldecahydro-4,9a-propanocyclopenta[8]annulen-5-yl 2-((8-fluoro-1-hydroxy-2-(methylsulfonyl)-1,2-dihydrobenzo[d][1,2,3]diazaborinin-7-yl)oxy)acetate]",> 1000,0.5 to 2,0.5 to 2

# Stronger by EC50 [1], values ahead:
EC50 [1] [nM],MIC [2] [µg/mL],MIC [3] [µg/mL],Compound
52,< 0.25,0.5 to 2,"C=C[C@]1(C)C[C@@H](OC(=O)COc2cc3c(cc2F)COB3O)[C@]2(C)[C@H](C)CC[C@]3(C[C@H](O)C(=O)[C@H]32)[C@@H](C)[C@@H]1O [Compound 37, (2S,3aR,4R,5R,7S,8S,9R,9aS,12R)-2,8-dihydroxy-4,7,9,12-tetramethyl-3-oxo-7-vinyldecahydro-4,9a-propanocyclopenta[8]annulen-5-yl 2-((5-fluoro-1-hydroxy-1,3-dihydrobenzo[c][1,2]oxaborol-6-yl)oxy)acetate]"
9,< 0.25,0.5 to 2,"C=C[C@]1(C)C[C@@H](OC(=O)COc2ccc3c(c2)B(O)OC3)[C@]2(C)[C@H](C)CC[C@]3(C[C@H](F)C(=O)[C@H]32)[C@@H](C)[C@@H]1O [Compound 38, (2S,3aR,4R,5R,7S,8S,9R,9aS,12R)-2-fluoro-8-hydroxy-4,7,9,12-tetramethyl-3-oxo-7-vinyldecahydro-4,9a-propanocyclopenta[8]annulen-5-yl 2-((1-hydroxy-1,3-dihydrobenzo[c][1,2]oxaborol-6-yl)oxy)acetate]"
18,< 0.25,0.5 to 2,"C=C[C@]1(C)C[C@@H](OC(=O)COc2cc3c(cc2F)COB3O)[C@]2(C)[C@H](C)CC[C@]3(C[C@H](F)C(=O)[C@H]32)[C@@H](C)[C@@H]1O [Compound 40, (2S,3aR,4R,5R,7S,8S,9R,9aS,12R)-2-fluoro-8-hydroxy-4,7,9,12-tetramethyl-3-oxo-7-vinyldecahydro-4,9a-propanocyclopenta[8]annulen-5-yl 2-((5-fluoro-1-hydroxy-1,3-dihydrobenzo[c][1,2]oxaborol-6-yl)oxy)acetate]"
12,0.5 to 2,< 0.25,"C=C[C@]1(C)C[C@@H](OC(=O)COc2ccc3c(c2)B(O)NN=C3)[C@]2(C)[C@H](C)CC[C@]3(C[C@H](O)C(=O)[C@H]32)[C@@H](C)[C@@H]1O [Compound 70, (2S,3aR,4R,5R,7S,8S,9R,9aS,12R)-2,8-dihydroxy-4,7,9,12-tetramethyl-3-oxo-7-vinyldecahydro-4,9a-propanocyclopenta[8]annulen-5-yl 2-((1-hydroxy-1,2-dihydrobenzo[d][1,2,3]diazaborinin-7-yl)oxy)acetate]"
1,< 0.25,< 0.25,"C=C[C@]1(C)C[C@@H](OC(=O)COc2ccc3c(c2)B(O)N(C(=O)OC(C)(C)C)N=C3)[C@]2(C)[C@H](C)CC[C@]3(C[C@H](F)C(=O)[C@H]32)[C@@H](C)[C@@H]1O [Compound 73, tert-butyl 7-(2-(((2S,3aR,4R,5R,7S,8S,9R,9aS,12R)-2-fluoro-8-hydroxy-4,7,9,12-tetramethyl-3-oxo-7-vinyldecahydro-4,9a-propanocyclopenta[8]annulen-5-yl)oxy)-2-oxoethoxy)-1-hydroxybenzo[d][1,2,3]diazaborinine-2(1H)-carboxylate]"
4,< 0.25,< 0.25,"C=C[C@]1(C)C[C@@H](OC(=O)COc2ccc3c(c2)B(O)NN=C3)[C@]2(C)[C@H](C)CC[C@]3(C[C@H](F)C(=O)[C@H]32)[C@@H](C)[C@@H]1O [Compound 74, (2S,3aR,4R,5R,7S,8S,9R,9aS,12R)-2-fluoro-8-hydroxy-4,7,9,12-tetramethyl-3-oxo-7-vinyldecahydro-4,9a-propanocyclopenta[8]annulen-5-yl 2-((1-hydroxy-1,2-dihydrobenzo[d][1,2,3]diazaborinin-7-yl)oxy)acetate]"
